According to patent US10709714B2 (CL BioSciences LLC, priority 2013, dated 2020):
Where two headings read alike, the source gives them in different places. Ends that are not written are not given here.

Experiments:
isolated G cells [1] = assay: Gastrin release from isolated G cells; format: cell-based; conditions: for EC50: read-out: EC50, stimulation of gastrin release
Description: (§1) The effect of the ovarian hormone, estrogen on G cell function was evaluated.

isolated G cells [2] = assay: cAMP production in isolated G cells; format: cell-based
Description: as §1

[3] = system: MAPK phosphorylation in G cells; assay: MAPK phosphorylation in G cells; format: cell-based; conditions: preincubation
G cells = assay: Calcium influx in G cells (flow cytometry, FITC shift); format: cell-based; conditions: CaCl2 4 mM
isolated rodent G cells = conditions: for EC50: read-out: Calcium (EC50); for IC50: read-out: OCTR (IC50)
Text: This animal has been extensively studied as a model of gastric acid pathophysiology relevant to long-term pharmacological inhibition of acid secretion (low acid state pathobiology).

PTH chief cells = conditions: read-out: EC50, stimulation of PTH release; human PTH chief cells
CCK2 receptor = biological target: T1, CCK2 receptor (Homo sapiens, UniProt P32239); assay: Gastrin-stimulated cAMP production and calcitonin release/transcription in MTC-SK cells; format: cell-based; conditions: H-89 10 μM preincubation
T1 construct: Gastrin stimulated both cAMP as well as calcitonin release from the well-differentiated human MTC cell line, MTC-SK; endogenous in cells; host or cells: MTC-SK (human medullary thyroid carcinoma cell line)
T1 sequence (P32239 1-447): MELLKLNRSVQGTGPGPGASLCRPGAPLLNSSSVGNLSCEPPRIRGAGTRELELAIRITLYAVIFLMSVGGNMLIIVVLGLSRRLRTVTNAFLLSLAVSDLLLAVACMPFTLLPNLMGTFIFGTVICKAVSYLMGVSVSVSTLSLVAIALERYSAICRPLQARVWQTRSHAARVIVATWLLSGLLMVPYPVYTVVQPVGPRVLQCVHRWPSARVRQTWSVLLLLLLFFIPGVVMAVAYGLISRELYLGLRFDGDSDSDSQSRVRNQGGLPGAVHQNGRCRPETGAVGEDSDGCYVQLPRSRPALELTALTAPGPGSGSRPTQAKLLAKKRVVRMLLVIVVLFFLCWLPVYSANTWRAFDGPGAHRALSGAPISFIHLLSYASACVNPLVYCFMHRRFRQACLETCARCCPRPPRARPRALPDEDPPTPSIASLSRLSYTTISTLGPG

isolated G cells [4] = assay: Gastrin release from isolated G cells; format: cell-based; conditions: for effect on CaCl2-mediated gastrin release: nifedipine 1 μm (preincubation 10 mins), H-89 10 μM, PD98059 0.1 μM, wortmannin 1 nM
[5] = Plasma gastrin in Mastomys under irreversible gastric acid suppression; format: in vivo; conditions: Mastomys 6-9 months, treated 30 days, Loxtidine 1 mg/L in drinking water
Text: This animal has been extensively studied as a model of gastric acid pathophysiology relevant to long-term pharmacological inhibition of acid secretion (low acid state pathobiology). […] Such treatment therefore results in an achlorhydric and hypergastrinemic animal model.

Mastomys femur = assay: Bone histomorphometry (TRAP-positive osteoclasts) in loxtidine-treated Mastomys; format: in vivo
Description: In one aspect, the changes in loxtidine-treated animals reflect loss of bone mineralization and increased resorption—features consistent with osteoporotic phenotypes. BM=bone mineralization, RC=resorption cavity.
Animals (females) 4-6 months old were treated with Loxtidine for 60 or 120 days. Age- and sex-matched untreated animals provided a control group.
Thereafter, bone histomorphometry was examined. […] Evidence of osteoid seams and osteomalacia was also noted (FIG. 21).

[6] = biological target: gastrin/CCK2 receptor (human, on isolated PTH chief cells and on the MTC-SK cell line) (human) (UniProt P32239); assay: cell-based or functional assay
[7] = 0.02-4 U/min, young anesthetized pigs; cited from earlier work
PTH receptor on G cells = assay: cell-based or functional assay
[8] = biological target: T2, calcitonin receptor on G cells; assay: cell-based or functional assay
T2 sequence (P30988 whole entry, species assumed, looked up): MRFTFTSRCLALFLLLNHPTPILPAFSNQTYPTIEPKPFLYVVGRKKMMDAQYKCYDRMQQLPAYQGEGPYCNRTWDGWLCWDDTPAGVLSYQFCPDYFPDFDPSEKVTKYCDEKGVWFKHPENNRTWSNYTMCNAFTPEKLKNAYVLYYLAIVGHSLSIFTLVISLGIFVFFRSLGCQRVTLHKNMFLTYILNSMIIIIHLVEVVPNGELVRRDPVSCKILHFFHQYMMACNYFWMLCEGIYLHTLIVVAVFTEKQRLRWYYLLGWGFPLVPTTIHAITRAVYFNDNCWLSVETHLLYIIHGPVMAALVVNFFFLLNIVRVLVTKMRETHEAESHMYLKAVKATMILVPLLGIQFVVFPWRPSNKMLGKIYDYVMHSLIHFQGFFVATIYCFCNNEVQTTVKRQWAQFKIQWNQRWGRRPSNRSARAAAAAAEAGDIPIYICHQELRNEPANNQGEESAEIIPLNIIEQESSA

[9] = H-89 10 μM preincubation 10 mins

## C[C@]12CC[C@@H]3c4ccc(O)cc4CC[C@H]3[C@@H]1CC[C@@H]2O [17β-estradiol]
Isolated G cells [1]
  inhibition of gastrin release: ~20%
Isolated G cells [1]; read-out: IC50, inhibition of gastrin release
  IC50: 4.6 pM
Isolated G cells [2]
  inhibition of cAMP production: −15%
Isolated G cells [2]; read-out: IC50, inhibition of cAMP synthesis
  IC50: 0.0011 nM
[3]
  inhibition of MAPK phosphorylation: 75%

## [Ca+2].[Cl-].[Cl-] [CaCl2]
Isolated G cells [1]; isolated G cells
  stimulation of gastrin release: 8 fold
  EC50: 4100 µM
Isolated G cells [2]
  cAMP production during calcium-mediated gastrin secretion: not associated with cAMP production
G cells
  calcium influx (FITC shift rightwards): > 5 fold
Isolated rodent G cells; Low acid G-cells
  EC50: 10000 µM
Isolated rodent G cells; Normal G-cells
  EC50: 4000 µM

## CC(C)C[C@H](NC(=O)[C@H](CCCCN)NC(=O)CNC(=O)[C@H](CC(C)C)NC(=O)[C@@H](NC(=O)[C@@H]1CSSC[C@H](N)C(=O)N[C@@H](CO)C(=O)N[C@@H](CC(N)=O)C(=O)N[C@@H](CC(C)C)C(=O)N[C@@H](CO)C(=O)N[C@@H]([C@@H](C)O)C(=O)N1)C(C)C)C(=O)N[C@@H](CO)C(=O)N[C@@H](CCC(N)=O)C(=O)N[C@@H](CCC(=O)O)C(=O)N[C@@H](CC(C)C)C(=O)N[C@@H](Cc1c[nH]cn1)C(=O)N[C@@H](CCCCN)C(=O)N[C@@H](CC(C)C)C(=O)N[C@@H](CCC(N)=O)C(=O)N[C@H](C(=O)N[C@@H](Cc1ccc(O)cc1)C(=O)N1CCC[C@H]1C(=O)N[C@@H](CCCNC(=N)N)C(=O)N[C@H](C(=O)N[C@@H](CC(N)=O)C(=O)N[C@H](C(=O)NCC(=O)N[C@@H](CO)C(=O)NCC(=O)N[C@H](C(=O)N1CCC[C@H]1C(N)=O)[C@@H](C)O)[C@@H](C)O)[C@@H](C)O)[C@@H](C)O [Calcitonin]
Isolated G cells [1]
  inhibition of gastrin release: ~20%
Isolated G cells [2]
  inhibition of cAMP production: 20%
Isolated G cells [2]; read-out: I50, inhibition of cAMP production
  IC50: 3.8 nM

## CSCC[C@H](NC(=O)[C@H](Cc1c[nH]c2ccccc12)NC(=O)CNC(=O)[C@H](Cc1ccc(O)cc1)NC(=O)[C@H](C)NC(=O)[C@H](CCC(=O)O)NC(=O)[C@H](CCC(=O)O)NC(=O)[C@H](CCC(=O)O)NC(=O)[C@H](CCC(=O)O)NC(=O)[C@H](CCC(=O)O)NC(=O)[C@H](CC(C)C)NC(=O)[C@H](Cc1c[nH]c2ccccc12)NC(=O)[C@@H]1CCCN1C(=O)CNC(=O)[C@@H]1CCC(=O)N1)C(=O)N[C@@H](CC(=O)O)C(=O)N[C@@H](Cc1ccccc1)C(N)=O [Gastrin]
PTH chief cells
  EC50: 0.00042 µM

## O=S(=O)(NCCNC/C=C/c1ccc(Br)cc1)c1cccc2cnccc12 [H-89]
Isolated G cells [2]; [9]
  effect on PTH-stimulated cAMP production: reversed
CCK2 receptor
  effect on gastrin-stimulated cAMP production: inhibited
  effect on gastrin-stimulated calcitonin gene transcription: reversed
Isolated G cells [4]; H-89 10 μM preincubation
  effect on calcitonin inhibition of gastrin release: reversed
Isolated G cells [4]; [9]
  effect on PTH-stimulated gastrin release: inhibited
Isolated G cells [4]
  effect on CaCl2-mediated gastrin release: could not be inhibited

## Cn1nc(CO)nc1NCCCOc1cccc(CN2CCCCC2)c1 [Loxtidine]
[5]
  plasma gastrin levels: 104 ± 23 pg/mL
Mastomys femur; 8-week treated Mastomys
  numbers of TRAP-positive osteoclasts: 15±6
Mastomys femur; 16-week treated Mastomys
  numbers of TRAP-positive osteoclasts: 16±4.5

## C[C@@H](O)[C@@H]1NC(=O)[C@H](CCCCN)NC(=O)[C@@H](Cc2c[nH]c3ccccc23)NC(=O)[C@H](Cc2ccccc2)NC(=O)[C@@H](NC(=O)[C@H](N)Cc2ccccc2)CSSC[C@@H](C(=O)N[C@H](CO)[C@@H](C)O)NC1=O [OCTR, octreotide]
Isolated rodent G cells
  increase of IC50 in low acid versus normal G cells: ~5 fold
Isolated rodent G cells; Low acid G-cells
  IC50: 0.14 nM
Isolated rodent G cells; Normal G-cells
  IC50: 0.028 nM

## COc1cccc(-c2cc(=O)c3ccccc3o2)c1N [PD98059]
Isolated G cells [4]
  effect on CaCl2-mediated gastrin release: could not be inhibited

## PTH: parathyroid hormone
Isolated G cells [1]; isolated G cells
  stimulation of gastrin release: ~8 fold
Isolated G cells [1]; estimated
  EC50: 0.06 µM
Isolated G cells [2]
  stimulation of cAMP production: 250%
Isolated G cells [2]; read-out: E50, stimulation of cAMP production
  EC50: 0.004 µM

## gastrin (ligand)
[6]
  PTH release from isolated human PTH chief cells: 420 pM
  PTH synthesis in isolated human PTH chief cells: 1 nM
  cAMP production in MTC-SK cells: 0.67 pM

## synthetic human 1-34 PTH: synthetic human 1-34 parathyroid hormone used in cited pig studies (SVSEIQLMHNLGKHLNSMERVEWLRKKLQDVHNF; Parathyroid hormone; UniProt P01270 32-65, looked up, fragment)
[7]
  increase in gastrin release: approximately 10 fold

B1: PTH (parathyroid hormone) (ligand, UniProt P01270 32-115, looked up, species assumed)
Parathyroid hormone: SVSEIQLMHNLGKHLNSMERVEWLRKKLQDVHNFVALGAPLAPRDAGSQRPRKKEDNVLVESHEKSLGEADKADVNVLTKAKSQ
modifications: Parathyroid hormone
PTH receptor on G cells
  cAMP production in isolated G cells: 4 nM
  gastrin release from isolated G cells: 60 nM

## CGNLSTCMLGTYTQDFNKFHTFPQTAIGVGAP (ligand, UniProt P01258 85-116, looked up, species assumed, ends and bridges not checked; cysteine pairing not given here) [calcitonin]
[8]
  inhibition of cAMP production in isolated G cells: 3.8 nM
  inhibition of gastrin release from isolated G cells: 1.9 nM

B2: native bovine PTH: native bovine parathyroid hormone used in cited pig studies (peptide, UniProt P01268 32-115, looked up)
Parathyroid hormone: AVSEIQFMHNLGKHLSSMERVEWLRKKLQDVHNFVALGASIAYRDGSSQRPRKKEDNVLVESHQKSLGEADKADVDVLIKAKPQ
modifications: Parathyroid hormone
notes: native bovine parathyroid hormone used in cited pig studies
[7]
  increase in gastrin release: approximately 10 fold
